Assay results as given in patent publication US9828393B2, “Silylalkyloxyaryl compounds and methods for treating cancer” (THE REGENTS OF THE UNIVERSITY OF COLORADO, a body corporate, priority 2013, dated 2017).
Where two headings read alike, the source gives them in different places.

Experiments:
Type in all cases: cell-based, human
M14 = experiment: NCI-60 cell line screen (SRB), M14; settings: Homo sapiens
Experimental: (§1) Drug sensitivity data are provided as GI50s (concentrations required to inhibit growth by 50%). The first row of the text file identifies cell lines, separated by tabs. Subsequent rows contain compound number, compound name, and GI50 for each cell line, each separated by a tab. […] For a typical screening experiment, cells are inoculated into 96 well microtiter plates in 100 μL at plating densities ranging from 5,000 to 40,000 cells/well depending on the doubling time of individual cell lines. After cell inoculation, the microtiter plates are incubated at 37° C., 5% CO2, 95% air and 100% relative humidity for 24 h prior to addition of experimental drugs. After 24 h, two plates of each cell line are fixed in situ with TCA, to represent a measurement of the cell population for each cell line at the time of drug addition (Tz). Experimental drugs are solubilized in dimethyl sulfoxide at 400-fold the desired final maximum test concentration and stored frozen prior to use. At the time of drug addition, an aliquot of frozen concentrate is thawed and diluted to twice the desired final maximum test concentration with complete medium containing 50 μg/ml gentamicin. Additional four, 10-fold or one-half log serial dilutions are made to provide a total of five drug concentrations plus control. Aliquots of 100 μl of these different drug dilutions are added to the appropriate microtiter wells already containing 100 μl of medium, resulting in the required final drug concentrations. Following drug addition, the plates are incubated for an additional 48 h at 37° C., 5% CO2, 95% air, and 100% relative humidity. For adherent cells, the assay is terminated by the addition of cold TCA. Cells are fixed in situ by the gentle addition of 50 μl of cold 50% (w/v) TCA (final concentration, 10% TCA) and incubated for 60 minutes at 4° C. The supernatant is discarded, and the plates are washed five times with tap water and air dried. Sulforhodamine B (SRB) solution (100 μl) at 0.4% (w/v) in 1% acetic acid is added to each well, and plates are incubated for 10 minutes at room temperature. After staining, unbound dye is removed by washing five times with 1% acetic acid and the plates are air dried. Bound stain is subsequently solubilized with 10 mM trizma base, and the absorbance is read on an automated plate reader at a wavelength of 515 nm. For suspension cells, the methodology is the same except that the assay is terminated by fixing settled cells at the bottom of the wells by gently adding 50 μl of 80% TCA (final concentration, 16% TCA). Using the seven absorbance measurements [time zero, (Tz), control growth, (C), and test growth in the presence of drug at the five concentration levels (Ti)], the percentage growth is calculated at each of the drug concentrations levels. […]

SK-MEL-28 = experiment: NCI-60 cell line screen (SRB), SK-MEL-28; settings: Homo sapiens
Experimental: as §1

MCF-7 = experiment: NCI-60 cell line screen (SRB), MCF-7; settings: Homo sapiens
Experimental: as §1

MALME-3M = experiment: NCI-60 cell line screen (SRB), MALME-3M; settings: Homo sapiens
Experimental: as §1

NCI-H460 = experiment: NCI-60 cell line screen (SRB), NCI-H460; settings: Homo sapiens
Experimental: as §1

HL-60(TB) = experiment: NCI-60 cell line screen (SRB), HL-60(TB); settings: Homo sapiens
Experimental: as §1

OVCAR-8 = experiment: NCI-60 cell line screen (SRB), OVCAR-8; settings: Homo sapiens
Experimental: as §1

[1] = test system: Prostate Cancer cell lines; experiment: NCI-60 cell line screen, Prostate Cancer panel average; settings: Homo sapiens, read-out: GI50 Average
Experimental: as §1

NCI-H322M = experiment: NCI-60 cell line screen (SRB), NCI-H322M; settings: Homo sapiens
Experimental: as §1

OVCAR-3 = experiment: NCI-60 cell line screen (SRB), OVCAR-3; settings: Homo sapiens
Experimental: as §1

UO-31 = experiment: NCI-60 cell line screen (SRB), UO-31; settings: Homo sapiens
Experimental: as §1

HOP-62 = experiment: NCI-60 cell line screen (SRB), HOP-62; settings: Homo sapiens
Experimental: as §1

KM12 = experiment: NCI-60 cell line screen (SRB), KM12; settings: Homo sapiens
Experimental: as §1

NCI-H226 = experiment: NCI-60 cell line screen (SRB), NCI-H226; settings: Homo sapiens
Experimental: as §1

SN12C = experiment: NCI-60 cell line screen (SRB), SN12C; settings: Homo sapiens
Experimental: as §1

Colon Cancer cell lines = experiment: NCI-60 cell line screen, Colon Cancer panel average; settings: Homo sapiens, read-out: GI50 Average
Experimental: as §1

COLO 205 = experiment: NCI-60 cell line screen (SRB), COLO 205; settings: Homo sapiens
Experimental: as §1

PC-3 = experiment: NCI-60 cell line screen (SRB), PC-3; settings: Homo sapiens
Experimental: as §1

A-498 = experiment: NCI-60 cell line screen (SRB), A-498; settings: Homo sapiens
Experimental: as §1

SK-MEL-2 = experiment: NCI-60 cell line screen (SRB), SK-MEL-2; settings: Homo sapiens
Experimental: as §1

SW-620 = experiment: NCI-60 cell line screen (SRB), SW-620; settings: Homo sapiens
Experimental: as §1

RPMI-8226 = experiment: NCI-60 cell line screen (SRB), RPMI-8226; settings: Homo sapiens
Experimental: as §1

HT29 = experiment: NCI-60 cell line screen (SRB), HT29; settings: Homo sapiens
Experimental: as §1

DU145 = experiment: NCI-60 cell line screen (SRB), DU145; settings: Homo sapiens
Experimental: as §1

## CC1(C)CC(NC(=O)[C@H](Cc2ccc(OCc3c(Cl)cccc3Cl)cc2)NC(=O)c2ccc(OCCC[Si](C)(C)C)cc2)CC(C)(C)N1 [GH1501, N^α-{4-[3-(trimethylsilyl)propoxy]-benzoyl}-N-(2,2,6,6-tetramethylpiperidin-4-yl)-[O-(2,6-dichlorobenzyl)-L-tyrosinamide]]
M14; M14, 48 h
  GI50: 341 nM
SK-MEL-28; SK-MEL-28, 48 h
  GI50: 1500 nM
MCF-7; MCF7, 48 h
  GI50: 335 nM
MALME-3M; Malme-3M, 48 h
  GI50: 1460 nM
NCI-H460; NCI-H460, 48 h
  GI50: 253 nM
HL-60(TB); HL-60, 48 h
  GI50: 813 nM
OVCAR-8; OVCAR-8, 48 h
  GI50: 268 nM
[1]
  GI50: 834 nM
NCI-H322M; 48 h
  GI50: 1740 nM
OVCAR-3; OVCAR-3, 48 h
  GI50: 1250 nM
UO-31; UO-31, 48 h
  GI50: 1520 nM
HOP-62; HOP-62, 48 h
  GI50: 1860 nM
KM12; KM12, 48 h
  GI50: 363 nM
NCI-H226; NCI-H226, 48 h
  GI50: 1770 nM
SN12C; 48 h
  GI50: 564 nM
Colon Cancer cell lines
  GI50: 395 nM
COLO 205; COLO 205, 48 h
  GI50: 216 nM
PC-3; PC-3, 48 h
  GI50: 1320 nM
A-498; A498, 48 h
  GI50: 1750 nM
SK-MEL-2; SK-MEL-2, 48 h
  GI50: 1770 nM
SW-620; SW-620, 48 h
  GI50: 313 nM
RPMI-8226; RPMI-8226, 48 h
  GI50: 1320 nM
HT29; HT-29, 48 h
  GI50: 263 nM
DU145; DU-145, 48 h
  GI50: 347 nM

## CCCC[Si](C)(C)COc1ccc(C(=O)N[C@@H](Cc2ccc(OCc3c(Cl)cccc3Cl)cc2)C(=O)NC2CC(C)(C)NC(C)(C)C2)cc1 [GH1503, N^α-{4-[(butyldimethylsilyl)methoxy]-benzoyl}-N-(2,2,6,6-tetramethylpiperidin-4-yl)-[O-(2,6-dichlorobenzyl)-L-tyrosinamide]]
M14; Melanoma, M14, 48 h drug incubation, read-out: GI50
  GI50: 334 nM
SK-MEL-28; Melanoma, SK-MEL-28, 48 h drug incubation, read-out: GI50
  GI50: 1580 nM
MCF-7; MCF7, Breast Cancer, MCF-7, 48 h drug incubation, read-out: GI50
  GI50: 356 nM
MALME-3M; Melanoma, MALME-3M, 48 h drug incubation, read-out: GI50
  GI50: 1200 nM
NCI-H460; Non-Small Cell Lung Cancer, NCI-H460, 48 h drug incubation, read-out: GI50
  GI50: 259 nM
HL-60(TB); Leukemia, HL-60(TB), 48 h drug incubation, read-out: GI50
  GI50: 790 nM
OVCAR-8; Ovarian Cancer, OVCAR-8, 48 h drug incubation, read-out: GI50
  GI50: 263 nM
[1]; average over Prostate Cancer panel
  GI50: 382 nM
NCI-H322M; Non-Small Cell Lung Cancer, 48 h drug incubation, read-out: GI50
  GI50: 1570 nM
OVCAR-3; Ovarian Cancer, OVCAR-3, 48 h drug incubation, read-out: GI50
  GI50: 761 nM
UO-31; Renal Cancer, UO-31, 48 h drug incubation, read-out: GI50
  GI50: 1500 nM
HOP-62; Non-Small Cell Lung Cancer, HOP-62, 48 h drug incubation, read-out: GI50
  GI50: 1510 nM
KM12; Colon Cancer, KM12, 48 h drug incubation, read-out: GI50
  GI50: 382 nM
NCI-H226; Non-Small Cell Lung Cancer, NCI-H226, 48 h drug incubation, read-out: GI50
  GI50: 1340 nM
SN12C; Renal Cancer, 48 h drug incubation, read-out: GI50
  GI50: 613 nM
Colon Cancer cell lines; average over Colon Cancer panel
  GI50: 442 nM
COLO 205; Colon Cancer, COLO 205, 48 h drug incubation, read-out: GI50
  GI50: 342 nM
PC-3; Prostate Cancer, PC-3, 48 h drug incubation, read-out: GI50
  GI50: 490 nM
A-498; A498, Renal Cancer, A-498, 48 h drug incubation, read-out: GI50
  GI50: 1950 nM
SK-MEL-2; Melanoma, SK-MEL-2, 48 h drug incubation, read-out: GI50
  GI50: 1560 nM
SW-620; Colon Cancer, SW-620, 48 h drug incubation, read-out: GI50
  GI50: 318 nM
RPMI-8226; Leukemia, RPMI-8226, 48 h drug incubation, read-out: GI50
  GI50: 893 nM
HT29; HT-29, Colon Cancer, HT29, 48 h drug incubation, read-out: GI50
  GI50: 342 nM
DU145; DU-145, Prostate Cancer, DU145, 48 h drug incubation, read-out: GI50
  GI50: 274 nM

## CCCC[Si](C)(C)COc1ccc(C(=O)N[C@@H](Cc2ccc(-c3ccccc3)cc2)C(=O)NC2CC(C)(C)NC(C)(C)C2)cc1 [GH1504, N^α-{4-[(butyldimethylsilyl)methoxy]-benzoyl}-N-(2,2,6,6-tetramethylpiperidin-4-yl)-(4-phenyl-L-phenylalaninamide)]
M14; M14, 48 h
  GI50: 286 nM
SK-MEL-28; SK-MEL-28, 48 h
  GI50: 1330 nM
MCF-7; MCF7, 48 h
  GI50: 332 nM
MALME-3M; Malme-3M, 48 h
  GI50: 1750 nM
NCI-H460; NCI-H460, 48 h
  GI50: 348 nM
HL-60(TB); HL-60, 48 h
  GI50: 1220 nM
OVCAR-8; OVCAR-8, 48 h
  GI50: 216 nM
[1]
  GI50: 834 nM
NCI-H322M; 48 h
  GI50: 1710 nM
OVCAR-3; OVCAR-3, 48 h
  GI50: 202 nM
UO-31; UO-31, 48 h
  GI50: 1550 nM
HOP-62; HOP-62, 48 h
  GI50: 1360 nM
KM12; KM12, 48 h
  GI50: 376 nM
NCI-H226; NCI-H226, 48 h
  GI50: 183 nM
SN12C; 48 h
  GI50: 526 nM
Colon Cancer cell lines
  GI50: 408 nM
COLO 205; COLO 205, 48 h
  GI50: 215 nM
PC-3; PC-3, 48 h
  GI50: 1300 nM
A-498; A498, 48 h
  GI50: 1950 nM
SK-MEL-2; SK-MEL-2, 48 h
  GI50: 944 nM
SW-620; SW-620, 48 h
  GI50: 316 nM
RPMI-8226; RPMI-8226, 48 h
  GI50: 1950 nM
HT29; HT-29, 48 h
  GI50: 315 nM
DU145; DU-145, 48 h
  GI50: 368 nM
